Laboratory results as given in US12662473B2, “Inhibitors for programmed cell necrosis and preparation method therefor and use thereof” (SHANGHAI INSTITUTE OF ORGANIC CHEMISTRY, CHINESE ACADEMY OF …, priority 2019, dated 2026).
Read-outs that look alike come from different tables or passages of the source.

How the values were obtained:
FADD−/− Jurkat cells = experiment: TNF-induced programmed cell necrosis inhibition, Cell Titer-Glo viability; assay type: cell-based
From the text: (§1) The adopted biological assay protocol was: the programmed necroptosis effect of compounds on TNF-induced in FADD (Fas-Associated Death Domain) deficient Jurkat cells and L929 cells.
(§2) In order to verify the inhibitory effect of the compounds of the present invention on programmed cell necrosis at the cellular level, cell types closely related to the RIP1 pathway, namely FADD deficient Jurkat cells (human peripheral blood leukemia T cell line) and L929 cells, were selected. Two different stimulation methods were used: tumor necrosis factor (TNFα) used alone, or TNFα used in combination with mitochondria-derived cysteine aspartate activator (SMAC). Cells viability was calculated by detecting chemiluminescence values, and the biological activity of the compound for inhibiting programmed cell necrosis can be obtained.
(§3) Methods: FADD deficient Jurkat cells: FADD deficient Jurkat cells (human peripheral blood leukemia T cell line) were cultured in vitro. After growing to the logarithmic growth phase, the cells were collected, centrifuged at 1000 rpm for 5 min, the supernatant was discarded, and the cell concentration was adjusted to 2.5×10^5/mL. Cells were seeded into 384-well plates, 40 μl per well. 5 μL of Smac (50 nM) diluted in cell culture medium and 5 μL of each compound were added to the corresponding wells. After pretreatment at 37° C. for 1 h, 5 μL of TNFα (50 ng/mL) diluted in cell culture medium was added to each well of the stimulation group, and 5 μL of the culture medium was added to the control group. The plate was cultured in a cell incubator (37° C., 5% CO2) for 14 h, and 15 μl of Cell Titer-Glo solution was added to each well, then incubated for 30 min at room temperature, and intracellular ATP level was measured by detecting luminescence. The unstimulated DMSO control wells were taken as 100% cell viability. L929 cells: The L929 cells (mouse fibroblasts) were cultured in vitro, digested and diluted to 6.25×10^4/ml, and the cells were seeded into 384-well plates, 40 μl per well. The plate was placed in a cell incubator (37° C., 5% CO2) for 12 hours. 5 μL of Smac (500 nM) diluted in cell culture medium and 5 μL of each compound were added to the corresponding wells. After pretreatment at 37° C. for 1 h, 5 μL of TNFα (500 ng/mL) diluted in cell culture medium was added to each well of the stimulation group, and 5 μL of the culture medium was added to the control group. After the plate was cultured for 14 h in a cell incubator (37° C., 5% CO2), 15 μl of Cell Titer-Glo solution was added to each well. The plate was incubated at room temperature for 30 min, and intracellular ATP level was measured by detecting luminescence. The unstimulated DMSO control wells were taken as 100% cell viability. EC50 values of the compounds were calculated using Prism Graphpad statistical software.
FADD deficient Jurkat cells: FADD deficient Jurkat cells (human peripheral blood leukemia T cell line) were cultured in vitro. After growing to the logarithmic growth phase, the cells were collected, centrifuged at 1000 rpm for 5 min, the supernatant was discarded, and the cell concentration was adjusted to 2.5×10^5/mL. Cells were seeded into 384-well plates, 40 μl per well. 5 μL of Smac (50 nM) diluted in cell culture medium and 5 μL of each compound were added to the corresponding wells. After pretreatment at 37° C. for 1 h, 5 μL of TNFα (50 ng/mL) diluted in cell culture medium was added to each well of the stimulation group, and 5 μL of the culture medium was added to the control group. After the plate was cultured in a cell incubator (37° C., 5% CO2) for 14 h, 15 μl of Cell Titer-Glo solution was added to each well. The mixture was incubated for 30 min at room temperature, and intracellular ATP level was measured by detecting luminescence. The unstimulated DMSO control wells were taken as 100% cell viability.

L929 cells = experiment: as above; assay type: cell-based, mouse; conditions: read-out: EC50 inhibitory activity on programmed cell necrosis
From the text: as §1, §2, §3
L929 cells: The L929 cells (mouse fibroblasts) were cultured in vitro, digested and diluted to 6.25×10^4/ml, and the cells were seeded into 384-well plates, 40 μl per well. The plate was placed in a cell incubator (37° C., 5% CO2) for 12 hours. 5 μL of Smac (500 nM) diluted in cell culture medium and 5 μL of each compound were added to the corresponding wells. After pretreatment at 37° C. for 1 h, 5 μL of TNFα (500 ng/mL) diluted in cell culture medium was added to each well of the stimulation group, and 5 μL of the culture medium was added to the control group. After the plate was cultured for 14 h in a cell incubator (37° C., 5% CO2), and 15 μl of Cell Titer-Glo solution was added to each well, then incubated at room temperature for 30 min, and intracellular ATP level was measured by detecting luminescence. The unstimulated DMSO control wells were taken as 100% cell viability.

[1] = Homo sapiens, Jurkat, 14 h, TNFa + SM164, read-out: EC50 inhibitory activity on programmed cell necrosis
[2] = Homo sapiens, Jurkat, TNFa, read-out: EC50 inhibitory activity on programmed cell necrosis
[3] = Mus musculus, L929, 14 h, L929 cells (mouse), TNFa + SM164
[4] = Mus musculus, L929, L929 cells (mouse), TNFa
[5] = FADD−/− Jurkat cells (human), TNFa + SM164, read-out: EC50 inhibitory activity on programmed cell necrosis
[6] = FADD−/− Jurkat cells (human), TNFa, read-out: EC50 inhibitory activity on programmed cell necrosis

Row | Compound | EC50 (FADD−/− Jurkat cells; [1]) [nM] | EC50 (FADD−/− Jurkat cells; [2]) [nM] | EC50 (L929 cells; [3]) [nM] | EC50 (L929 cells; [4]) [nM] | EC50 (FADD−/− Jurkat cells; [5]) [nM] | EC50 (FADD−/− Jurkat cells; [6]) [nM] | EC50 (L929 cells; L929 cells (mouse), TNFa) [nM] | EC50 (L929 cells; L929 cells (mouse), TNFa + SM164) [nM] | EC50 (L929 cells; Mus musculus, L929, L929 cells (mouse), TNFa + SM164) [nM]
1 | Cc1noc([C@@H]2CCCN2C(=O)C(C)(C)Oc2ccc3ccccc3c2)n1 [QY-3-28] | > 10000 | 5550 | 4080 | 878 |  |  |  |  | 
2 | CC(C)(Oc1ccc(Cl)cc1)C(=O)N1CCCC1c1ccccc1 (centres unmarked) [QY-3-29] | 664 | 35 | 157 | 47 |  |  |  |  | 
3 | Cc1noc([C@@H]2CCCN2C(=O)C2(Oc3ccc(Cl)cc3)CC2)n1 [QY-3-35] | > 10000 | 10500 | > 10000 | 160000 |  |  |  |  | 
4 | Cc1noc([C@@H]2CCCN2C(=O)C(C)(C)Sc2ccc(Cl)cc2)n1 [QY-3-36] | 8360 | 983 | 9400 | 2250 |  |  |  |  | 
5 | Cc1cccc(C2CCCN2C(=O)C(C)(C)Oc2ccc(Cl)cc2)c1 (centres unmarked) [QY-3-39] | 5280 | 712 | 1480 | 386 |  |  |  |  | 
6 | Cc1noc([C@@H]2CCCN2C(=O)C2(Oc3ccc(Cl)cc3)CCCC2)n1 [QY-3-46] | 5830 | 789 | > 10000 | 2010 |  |  |  |  | 
7 | CCN(CC)Cc1noc([C@@H]2CCCN2C(=O)C(C)(C)Oc2ccc(Cl)cc2)n1 [QY-3-51] | > 10000 | 59200 | > 10000 | > 10000 |  |  |  |  | 
8 | CN(C)C(=O)c1noc([C@@H]2CCCN2C(=O)C(C)(C)Oc2ccc(Cl)cc2)n1 [QY-3-65] | > 10000 | > 10000 | > 10000 | > 10000 |  |  |  |  | 
9 | Cc1noc([C@@H]2CCCN2C(=O)C(C)(C)Oc2ccc(Cl)cc2Cl)n1 [QY-3-81] | 1960 | 326 | 2720 | 704 |  |  |  |  | 
10 | Cc1noc([C@@H]2CCCN2C(=O)C(C)(C)N(C)c2ccc(Cl)cc2)n1 [QY-3-86] | 8680 | 13500 | > 10000 | > 10000 |  |  |  |  | 
11 | Cc1noc([C@@H]2CCCN2C(=O)C(C)(C)Oc2ccc(Cl)cc2C)n1 [QY-3-94] |  |  | 5220 |  | 2960 | 516 | 1410 |  | 
12 | COc1cc(Cl)ccc1OC(C)(C)C(=O)N1CCC[C@H]1c1nc(C)no1 [QY-3-95] | 1140 | 102 | 1000 | 135 |  |  |  |  | 
13 | Cc1noc([C@@H]2CCCN2C(=O)C(C)(C)Oc2ccc(Cl)cc2C)n1 [QY-3-96] |  |  |  |  | 9220 | 2790 | > 10000 | > 10000 | 
14 | CC(C)(Oc1ccc(Cl)cc1F)C(=O)N1CCCC1c1ccccc1 (centres unmarked) [QY-3-99, 2-(4-Chloro-2-fluorophenoxy)-2-methyl-1-(2-phenylpyrrolidin-1-yl)propan-1-one] | 444 | 61 |  | 62 |  |  |  |  | 244
15 | Cc1noc([C@@H]2CCCN2C(=O)C(C)(C)Oc2cc(Cl)c(Cl)cc2Cl)n1 [QY-4-1] | > 10000 | 10300 | > 10000 | 12700 |  |  |  |  | 
16 | Cc1noc([C@@H]2CCCN2C(=O)C(C)(C)Oc2c(F)cc(Cl)cc2F)n1 [QY-4-2] | 7730 | 1060 | 16900 | 3950 |  |  |  |  | 
17 | CC(C)(Oc1ccc(Cl)cc1)C(=O)N1CCCC1c1ccc(Cl)cc1 (centres unmarked) [QY-4-6] | 776 | 116 | 292 | 65 |  |  |  |  | 
18 | CC(C)(Oc1ccc(Cl)cc1)C(=O)N1CCCC1c1ccc(F)cc1 (centres unmarked) [QY-4-7] | 825 | 126 | 652 | 111 |  |  |  |  | 
19 | Cn1nnnc1[C@@H]1CCCN1C(=O)C(C)(C)Oc1ccc(Cl)cc1 [QY-4-11] | 1710 | 61 | > 10000 | > 10000 |  |  |  |  | 
20 | Cn1nnc([C@@H]2CCCN2C(=O)C(C)(C)Oc2ccc(Cl)cc2)n1 [QY-4-12] | 5890 | 607 | 9530 | 1610 |  |  |  |  | 
21 | Cc1noc([C@@H]2CCCN2C(=O)C(C)(C)Oc2c(F)cc(F)cc2F)n1 [QY-4-14] | 40600 | 18000 | > 10000 | 5890 |  |  |  |  | 
22 | Cc1ccccc1C1CCCN1C(=O)C(C)(C)Oc1ccc(Cl)cc1 (centres unmarked) [QY-4-27] | > 10000 | 2900 | > 10000 | 3670 |  |  |  |  | 
23 | CC(C)(Oc1ccc(Cl)cc1)C(=O)N1CCCC1c1ccccc1Cl (centres unmarked) [QY-4-32] | 2680 | 712 | 1650 | 520 |  |  |  |  | 
24 | CC(C)(Oc1ccc(Cl)cc1)C(=O)N1CCCC1c1cccc(Cl)c1 (centres unmarked) [QY-4-35] | > 10000 | 4090 | > 10000 | 3700 |  |  |  |  | 
25 | CC(C)(Oc1ccc(Cl)cc1)C(=O)N1CCCC1c1cccc(F)c1 (centres unmarked) [QY-4-39] | 1190 | 274 | 675 | 189 |  |  |  |  | 
26 | Cc1ccc(C2CCCN2C(=O)C(C)(C)Oc2ccc(Cl)cc2C#N)cc1 (centres unmarked) [QY-4-66] | 2190 | 544 | 1280 | 392 |  |  |  |  | 
